From publication PMC5218480 (PLoS ONE, 2017) come the findings set out here.

The experiment concerns MV-4-11 cells. The experiment in a line: Gene expression microarray analysis (Affymetrix PrimeView) and GSEA. Format: cell-based, human. More on the design: RFU PODN (11730768_x_at) / Fold change /veh PODN (11730768_x_at) / RFU LINC00158 (11744669_a_at) / Fold change /veh LINC00158 (11744669_a_at) / RFU DUSP10 (11751237_a_at) / Fold change /veh DUSP10 (11751237_a_at) / RFU ID3 (11757404_x_at) / Fold change /veh ID3 (11757404_x_at) / RFU PLEKHG5 (11737974_s_at) / Fold change /veh PLEKHG5 (11737974_s_at) / RFU LRRC4B (11730491_at) / Fold change /veh LRRC4B (11730491_at) / RFU GIMAP4 (11747438_a_at) / Fold change /veh GIMAP4 (11747438_a_at) / RFU KRT8 (11758183_x_at) / Fold change /veh KRT8 (11758183_x_at) / RFU CNN1 (11734310_a_at) / Fold change /veh CNN1 (11734310_a_at) / RFU VPS37D (11726825_at) / Fold change /veh VPS37D (11726825_at) / RFU C10orf10 (11716522_x_at) / Fold change /veh C10orf10 (11716522_x_at) / RFU KIR2DL2 /// KIR2DL4 /// KIR2DL5A /// KIR2DL5B /// KIR2DS1 /// KIR2DS2 /// KIR2DS3 /// KIR2DS4 /// KIR3DL3 /// KIR3DL3 /// KIR3DS1 (11738374_at) / Fold change /veh KIR2DL2 /// KIR2DL4 /// KIR2DL5A /// KIR2DL5B /// KIR2DS1 /// KIR2DS2 /// KIR2DS3 /// KIR2DS4 /// KIR3DL3 /// KIR3DL3 /// KIR3DS1 (11738374_at) / RFU C1QL1 (11718748_at) / Fold change /veh C1QL1 (11718748_at) / RFU TMPRSS4 (11747572_a_at) / Fold change /veh TMPRSS4 (11747572_a_at) / RFU HAMP (11756126_x_at) / Fold change /veh HAMP (11756126_x_at) / RFU RNFT2 (11725882_a_at) / Fold change /veh RNFT2 (11725882_a_at) / RFU NR4A2 (11747474_a_at) / Fold change /veh NR4A2 (11747474_a_at) / RFU ABCC12 (11746883_a_at) / Fold change /veh ABCC12 (11746883_a_at) / RFU TMEM136 (11760407_x_at) / Fold change /veh TMEM136 (11760407_x_at) / RFU CLDN22 /// WWC2 (11732394_at) / Fold change /veh CLDN22 /// WWC2 (11732394_at) / RFU HLA-DPB1 (11760878_x_at) / Fold change /veh HLA-DPB1 (11760878_x_at) / RFU SPINT1 (11716480_a_at) / Fold change /veh SPINT1 (11716480_a_at) / RFU GAP43 (11754022_s_at) / Fold change /veh GAP43 (11754022_s_at) / RFU A4GNT (11735810_at) / Fold change /veh A4GNT (11735810_at) / RFU PRB3 (11715151_x_at) / Fold change /veh PRB3 (11715151_x_at) / RFU TUBB4B (11761932_at) / Fold change /veh TUBB4B (11761932_at) / RFU CAPN14 (11732068_a_at) / Fold change /veh CAPN14 (11732068_a_at) / RFU TMCC2 (11721928_a_at) / Fold change /veh TMCC2 (11721928_a_at) / RFU IRGQ (11745062_a_at) / Fold change /veh IRGQ (11745062_a_at) / RFU FAM174B (11720279_a_at) / Fold change /veh FAM174B (11720279_a_at) / RFU TMPRSS4 (11748680_a_at) / Fold change /veh TMPRSS4 (11748680_a_at) / RFU FAM212B (11763350_a_at) / Fold change /veh FAM212B (11763350_a_at) / RFU PLEKHG5 (11743358_a_at) / Fold change /veh PLEKHG5 (11743358_a_at) / RFU ZSCAN30 (11745921_a_at) / Fold change /veh ZSCAN30 (11745921_a_at) / RFU CMKLR1 (11741424_a_at) / Fold change /veh CMKLR1 (11741424_a_at) / RFU LOC101060620 /// MAPK8IP1 (11723275_at) / Fold change /veh LOC101060620 /// MAPK8IP1 (11723275_at) / RFU SPTSSB (11747773_x_at) / Fold change /veh SPTSSB (11747773_x_at) / RFU PRSS12 (11739890_at) / Fold change /veh PRSS12 (11739890_at) / RFU BIN1 (11741810_x_at) / Fold change /veh BIN1 (11741810_x_at) / RFU WNT11 (11732464_a_at) / Fold change /veh WNT11 (11732464_a_at) / RFU C10orf10 (11716521_a_at) / Fold change /veh C10orf10 (11716521_a_at) / RFU C5orf56 (11738089_at) / Fold change /veh C5orf56 (11738089_at) / RFU CYB561 (11721691_x_at) / Fold change /veh CYB561 (11721691_x_at) / RFU ANKRD19P (11752326_a_at) / Fold change /veh ANKRD19P (11752326_a_at) / RFU OR2T12 /// OR2T33 /// OR2T8 (11738714_s_at) / Fold change /veh OR2T12 /// OR2T33 /// OR2T8 (11738714_s_at) / RFU VCAN (11748164_a_at) / Fold change /veh VCAN (11748164_a_at) / RFU JSRP1 (11732532_at) / Fold change /veh JSRP1 (11732532_at) / RFU KRTAP10-11 (11738290_x_at) / Fold change /veh KRTAP10-11 (11738290_x_at) / RFU MYO3A (11730013_a_at) / Fold change /veh MYO3A (11730013_a_at) / RFU EBF3 (11725865_a_at) / Fold change /veh EBF3 (11725865_a_at) / RFU CAMK2N1 (11719241_x_at) / Fold change /veh CAMK2N1 (11719241_x_at) / RFU C5orf56 (11738088_a_at) / Fold change /veh C5orf56 (11738088_a_at) / RFU OLFML3 (11715873_a_at) / Fold change /veh OLFML3 (11715873_a_at) / RFU LOC100653217 /// NTM (11731650_a_at) / Fold change /veh LOC100653217 /// NTM (11731650_a_at) / RFU MAPK11 (11762145_a_at) / Fold change /veh MAPK11 (11762145_a_at) / RFU FIZ1 (11724087_x_at) / Fold change /veh FIZ1 (11724087_x_at) / RFU OASL (11726364_x_at) / Fold change /veh OASL (11726364_x_at) / RFU SOX15 (11748057_x_at) / Fold change /veh SOX15 (11748057_x_at) / RFU CD79A (11719716_a_at) / Fold change /veh CD79A (11719716_a_at) / RFU HIST1H1D (11736915_at) / Fold change /veh HIST1H1D (11736915_at) / RFU CASKIN2 (11723855_a_at) / Fold change /veh CASKIN2 (11723855_a_at) / RFU LOC730098 (11760151_x_at) / Fold change /veh LOC730098 (11760151_x_at) / RFU OR4N2 (11742367_at) / Fold change /veh OR4N2 (11742367_at) / RFU PRRT2 (11749266_a_at) / Fold change /veh PRRT2 (11749266_a_at) / RFU SNX32 (11753110_a_at) / Fold change /veh SNX32 (11753110_a_at) / RFU CDHR5 (11726645_a_at) / Fold change /veh CDHR5 (11726645_a_at) / RFU RCAN1 (11760418_a_at) / Fold change /veh RCAN1 (11760418_a_at) / RFU FAM167A (11723789_a_at) / Fold change /veh FAM167A (11723789_a_at) / RFU FAM26E (11764081_at) / Fold change /veh FAM26E (11764081_at) / RFU ISYNA1 (11749810_s_at) / Fold change /veh ISYNA1 (11749810_s_at) / RFU ACY1 (11761880_at) / Fold change /veh ACY1 (11761880_at) / RFU 11764098_at / Fold change /veh 11764098_at / RFU SAMD14 (11745864_x_at) / Fold change /veh SAMD14 (11745864_x_at) / RFU NPB (11741838_a_at) / Fold change /veh NPB (11741838_a_at) / RFU TMPRSS6 (11731388_a_at) / Fold change /veh TMPRSS6 (11731388_a_at) / RFU KRTAP10-2 (11738614_at) / Fold change /veh KRTAP10-2 (11738614_at) / RFU ARHGAP8 /// PRR5-ARHGAP8 (11727945_x_at) / Fold change /veh ARHGAP8 /// PRR5-ARHGAP8 (11727945_x_at) / RFU KRTAP5-7 /// NADSYN1 (11734609_at) / Fold change /veh KRTAP5-7 /// NADSYN1 (11734609_at) / RFU RASL12 (11751679_a_at) / Fold change /veh RASL12 (11751679_a_at) / RFU CDKN2B (11736163_a_at) / Fold change /veh CDKN2B (11736163_a_at) / RFU PRF1 (11729649_at) / Fold change /veh PRF1 (11729649_at) / RFU, ZNF638 /// ZNF638-IT1 / Fold change vs veh, ZNF638 /// ZNF638-IT1 / RFU, PANK3 / Fold change vs veh, PANK3 / RFU, SH3YL1 / Fold change vs veh, SH3YL1 / RFU, ZEB2 / Fold change vs veh, ZEB2 / RFU, NRIP1 / Fold change vs veh, NRIP1 / RFU, PTTG1IP / Fold change vs veh, PTTG1IP / RFU, CAPN2 / Fold change vs veh, CAPN2 / RFU, MED14 / Fold change vs veh, MED14 / RFU, SNORA58 / Fold change vs veh, SNORA58 / RFU, C1orf63 / Fold change vs veh, C1orf63 / RFU, LRRFIP1 / Fold change vs veh, LRRFIP1 / RFU, NDUFAF7 / Fold change vs veh, NDUFAF7 / RFU, SLC12A2 / Fold change vs veh, SLC12A2 / RFU, IBTK / Fold change vs veh, IBTK / RFU, ESF1 / Fold change vs veh, ESF1 / Fold change vs veh, TMEM50B / RFU, TAOK1 / Fold change vs veh, TAOK1 / RFU, ACBD3 / Fold change vs veh, ACBD3 / RFU, TMA16 / Fold change vs veh, TMA16 / RFU, RWDD3 / Fold change vs veh, RWDD3 / RFU, BCAT1 / Fold change vs veh, BCAT1 / RFU, EDEM3 / Fold change vs veh, EDEM3 / RFU, TMEM33 / Fold change vs veh, TMEM33 / RFU, WDR75 / Fold change vs veh, WDR75 / RFU, AHCTF1 / Fold change vs veh, AHCTF1 / RFU, TFRC / Fold change vs veh, TFRC / RFU, ZDHHC17 / Fold change vs veh, ZDHHC17 / RFU, NOM1 / Fold change vs veh, NOM1 / RFU, ARL8B / Fold change vs veh, ARL8B / RFU, ZBTB11 / Fold change vs veh, ZBTB11 / RFU, TAMM41 / Fold change vs veh, TAMM41 / RFU, KIAA1704 /// LOC100996395 / Fold change vs veh, KIAA1704 /// LOC100996395 / RFU, ING1 / Fold change vs veh, ING1 / RFU, TRMT61B / Fold change vs veh, TRMT61B / RFU, FUBP3 / Fold change vs veh, FUBP3 / RFU, TP53 / Fold change vs veh, TP53 / RFU, TNKS2 / Fold change vs veh, TNKS2 / RFU, ZFP14 / Fold change vs veh, ZFP14 / RFU, ACTR2 / Fold change vs veh, ACTR2 / RFU, PPP3R1 / Fold change vs veh, PPP3R1 / RFU, PIK3R1 / Fold change vs veh, PIK3R1 / RFU, HNRNPA1 / Fold change vs veh, HNRNPA1 / RFU, RNF170 / Fold change vs veh, RNF170 / RFU, ZNF28 / Fold change vs veh, ZNF28 / RFU, RNGTT / Fold change vs veh, RNGTT / RFU, OGT / Fold change vs veh, OGT / RFU, BRD1 / Fold change vs veh, BRD1 / RFU, MARS / Fold change vs veh, MARS / RFU, ZNF655 / Fold change vs veh, ZNF655 / RFU, FAHD1 / Fold change vs veh, FAHD1 / RFU, BDP1 / Fold change vs veh, BDP1 / RFU, LRRCC1 / Fold change vs veh, LRRCC1 / RFU, ARID1A / Fold change vs veh, ARID1A / RFU, ZNF146 / Fold change vs veh, ZNF146 / RFU, ZNF330 / Fold change vs veh, ZNF330 / RFU, GPN3 / Fold change vs veh, GPN3 / RFU, C9orf123 / Fold change vs veh, C9orf123 / RFU, N4BP2L2 / Fold change vs veh, N4BP2L2 / RFU, ARFIP1 / Fold change vs veh, ARFIP1 / RFU, FAM179B / Fold change vs veh, FAM179B / RFU, BCL10 / Fold change vs veh, BCL10 / RFU, UHRF1BP1L / Fold change vs veh, UHRF1BP1L / RFU, BET1 / Fold change vs veh, BET1 / RFU, CNOT2 / Fold change vs veh, CNOT2 / RFU, ZNF268 / Fold change vs veh, ZNF268 / Fold change vs veh, ZNF507 / RFU, DGCR2 / Fold change vs veh, DGCR2 / RFU, WDSUB1 / Fold change vs veh, WDSUB1 / Fold change vs veh, HSP90B1 /// MIR3652 / RFU, ADSS / Fold change vs veh, ADSS / RFU, GK / Fold change vs veh, GK / RFU, ZNF148 / Fold change vs veh, ZNF148 / RFU, TAF9 / Fold change vs veh, TAF9 / RFU, SLC1A5 / Fold change vs veh, SLC1A5 / RFU, SLMO2 / Fold change vs veh, SLMO2 / RFU, ABCC4 / Fold change vs veh, ABCC4 / RFU, LOC101060439 /// RAP1B / Fold change vs veh, LOC101060439 /// RAP1B / RFU, RFX7 / Fold change vs veh, RFX7 / RFU, GTPBP10 / Fold change vs veh, GTPBP10 / RFU, CNEP1R1 / Fold change vs veh, CNEP1R1 / RFU, BIVM-ERCC5 /// ERCC5 / Fold change vs veh, BIVM-ERCC5 /// ERCC5 / RFU, ILF3 / Fold change vs veh, ILF3 / RFU 11762660_at / Fold change /veh 11762660_at / RFU VCAN (11757783_s_at) / Fold change /veh VCAN (11757783_s_at) / RFU DDX43 (11728927_at) / Fold change /veh DDX43 (11728927_at) / RFU KRT8 (11758188_x_at) / Fold change /veh KRT8 (11758188_x_at) / RFU NKD1 (11759106_at) / Fold change /veh NKD1 (11759106_at) / RFU SRD5A1 (11742802_a_at) / Fold change /veh SRD5A1 (11742802_a_at) / RFU TPSAB1 /// TPSB2 (11721975_s_at) / Fold change /veh TPSAB1 /// TPSB2 (11721975_s_at) / RFU GSTM3 (11746129_a_at) / Fold change /veh GSTM3 (11746129_a_at) / RFU IL23R (11737362_x_at) / Fold change /veh IL23R (11737362_x_at) / RFU TMEM51 (11727254_a_at) / Fold change /veh TMEM51 (11727254_a_at) / RFU PIWIL2 (11732686_x_at) / Fold change /veh PIWIL2 (11732686_x_at) / RFU ORM1 (11744905_x_at) / Fold change /veh ORM1 (11744905_x_at) / RFU CCDC152 (11743942_at) / Fold change /veh CCDC152 (11743942_at) / RFU ECM1 (11717891_a_at) / Fold change /veh ECM1 (11717891_a_at) / RFU IL23R (11748794_a_at) / Fold change /veh IL23R (11748794_a_at) / RFU TNFAIP8L3 (11732012_x_at) / Fold change /veh TNFAIP8L3 (11732012_x_at) / RFU MBOAT4 (11741988_at) / Fold change /veh MBOAT4 (11741988_at) / RFU 11764193_at / Fold change /veh 11764193_at / RFU TMEM53 (11763286_at) / Fold change /veh TMEM53 (11763286_at) / RFU MAGEB2 (11727129_at) / Fold change /veh MAGEB2 (11727129_at) / RFU TMEM200A (11744735_a_at) / Fold change /veh TMEM200A (11744735_a_at) / RFU CCDC152 (11751479_a_at) / Fold change /veh CCDC152 (11751479_a_at) / RFU FAM211A (11726209_a_at) / Fold change /veh FAM211A (11726209_a_at) / RFU RGS16 (11746705_a_at) / Fold change /veh RGS16 (11746705_a_at) / RFU VCAN (11755009_s_at) / Fold change /veh VCAN (11755009_s_at) / RFU RHOB (11743442_s_at) / Fold change /veh RHOB (11743442_s_at) / RFU RGS16 (11720943_a_at) / Fold change /veh RGS16 (11720943_a_at) / RFU RGS16 (11720944_at) / Fold change /veh RGS16 (11720944_at) / RFU, VPS4B / Fold change vs veh, VPS4B / RFU, CREB1 / Fold change vs veh, CREB1 / RFU, DNAJC13 / Fold change vs veh, DNAJC13 / RFU, GNAQ / Fold change vs veh, GNAQ / RFU, CDK5R1 / Fold change vs veh, CDK5R1 / RFU, ZRANB3 / Fold change vs veh, ZRANB3 / RFU, CUL4A / Fold change vs veh, CUL4A / RFU, CCNY / Fold change vs veh, CCNY / RFU, UFL1 / Fold change vs veh, UFL1 / RFU, COG3 / Fold change vs veh, COG3 / RFU, DIAPH2 / Fold change vs veh, DIAPH2 / RFU, SKA2 / Fold change vs veh, SKA2 / RFU, AFF3 / Fold change vs veh, AFF3 / RFU, LMF1 / Fold change vs veh, LMF1 / RFU, IPO11 / Fold change vs veh, IPO11 / RFU, DFFB / Fold change vs veh, DFFB / RFU, FOXP1 / Fold change vs veh, FOXP1 / RFU, CARD8 / Fold change vs veh, CARD8 / RFU, STRN3 / Fold change vs veh, STRN3 / RFU, ADK / Fold change vs veh, ADK / RFU, RASSF2 / Fold change vs veh, RASSF2 / RFU, WIPF1 / Fold change vs veh, WIPF1 / RFU, LARP1B / Fold change vs veh, LARP1B / RFU, RASA1 / Fold change vs veh, RASA1 / RFU, RB1 / Fold change vs veh, RB1 / RFU, PPFIA1 / Fold change vs veh, PPFIA1 / RFU, MAT2A / Fold change vs veh, MAT2A / RFU, CCT5 / Fold change vs veh, CCT5 / RFU, WDR92 / Fold change vs veh, WDR92 / RFU, CUX1 / Fold change vs veh, CUX1 / RFU, TTC7A / Fold change vs veh, TTC7A / RFU, TMEM135 / Fold change vs veh, TMEM135 / RFU, DEPTOR / Fold change vs veh, DEPTOR / RFU, CPM / Fold change vs veh, CPM / RFU, DNAJB6 / Fold change vs veh, DNAJB6 / RFU, CACNA2D3 / Fold change vs veh, CACNA2D3 / RFU, DTX4 / Fold change vs veh, DTX4 / RFU, TFCP2 / Fold change vs veh, TFCP2 / RFU, GMCL1 /// GMCL1P1 / Fold change vs veh, GMCL1 /// GMCL1P1 / RFU, AEBP2 / Fold change vs veh, AEBP2 / RFU, SNHG1 /// SNORD22 /// SNORD25 /// SNORD26 /// SNORD27 /// SNORD28 /// SNORD29 /// SNORD31 / Fold change vs veh, SNHG1 /// SNORD22 /// SNORD25 /// SNORD26 /// SNORD27 /// SNORD28 /// SNORD29 /// SNORD31 / Fold change (Aza/veh), C12orf56 (ProbeSet 11735607_a_at) / Fold change (ACY-1035/veh), C12orf56 (ProbeSet 11735607_a_at) / Fold change (Aza/veh), FGFR1OP (ProbeSet 11751329_s_at) / Fold change (ACY-1035/veh), FGFR1OP (ProbeSet 11751329_s_at) / Fold change (Aza/veh), VPS36 (ProbeSet 11739960_a_at) / Fold change (ACY-1035/veh), VPS36 (ProbeSet 11739960_a_at) / RFU SYPL1 (11715823_x_at) / Fold change /veh SYPL1 (11715823_x_at) / RFU IGFBP7 (11715501_s_at) / Fold change /veh IGFBP7 (11715501_s_at) / RFU REEP3 (11722064_at) / Fold change /veh REEP3 (11722064_at) / RFU IGLL1 (11728026_x_at) / Fold change /veh IGLL1 (11728026_x_at): dose or concentration left out as unconfirmed. The settings on record: ProbeSet 11733831_s_at; LIST D.

Turning to `Nc1ccc(-c2cccs2)cc1NC(=O)c1ccc2c(c1)cc(C1CC1)n2CCN1CCOCC1` [ACY-1035], the “Fold change vs veh, GMCL1 /// GMCL1P1” value amounted to 0.86.
